Measured values as given in BindingDB's records for patent US20260014125 (Haihe Biopharma, 2026).

Each compound was assayed against S-adenosylmethionine synthase isoform type-2 (Homo sapiens, UniProt P31153) (assay: Enzymatic Activity of MAT2A).
Procedure: 1. 1×Assaybuffer (buffer composition: Tris, KCl, MgCl2, BSA, Brij35, and EDTA; the solvent was ultrapure water) was prepared. MAT2A his-tag enzyme solution (containing 1.3 μL of MAT2A enzyme and 998.7 μL of 1×Assaybuffer per 1000 μL) and substrate mixed solution (containing 5 μL of ATP, 1.3 μL of L-methionine, and 993.7 μL of 1×Assaybuffer per 1000 μL) were prepared using 1×AssayBuffer.2. Preparation of compound concentration gradient: The test compound was tested with a starting concentration of 10 μM, and 10 […] concentrations were set according to a 3-fold dilution. Specifically, firstly, the compound was diluted into 10 different concentrations of series solutions in a 384 well plate (with final detection concentrations of 10, 3.33, 1.11, 0.37, 0.123, 0.041, 0.0137, 0.0046, 0.0015, and 0.0005 μM), and then 250 nL of the above series solutions was transferred to the 384 well reaction plate using an ultrasonic pipetting system Echo550 for later use. 250 nL of 100% DMSO was added into a negative control well and a positive control well, respectively. Double well test.3. 15 μL of MAT2A his-tag enzyme solution was added into both the compound well and the positive control well; and 15 μL of 1×Assaybuffer was added into the negative control well.4. The 384 well plate reaction plate was centrifuged at 1000 rpm for 60 seconds, shaken, mixed well, and incubated for 15 minutes. 10 μL of substrate mixed solution was added into each experimental well of the 384 well reaction plate to initiate the reaction.5. The 384 well reaction plate was centrifuged at 1000 rpm for 60 seconds, shaken, mixed well, and incubated for 150 minutes.6. 50 μL of enzyme reaction termination solution Biomol was added into all experimental wells of the 384 well reaction plate to terminate the reaction, centrifuged at 1000 rpm for 60 seconds, and incubated for 15 minutes. OD620 was Data analysis: the inhibition rate (%) of the compound was calculated and fitted to obtain the IC50 of the tested compound.

Sequence of S-adenosylmethionine synthase isoform type-2 (P31153 whole entry, canonical isoform): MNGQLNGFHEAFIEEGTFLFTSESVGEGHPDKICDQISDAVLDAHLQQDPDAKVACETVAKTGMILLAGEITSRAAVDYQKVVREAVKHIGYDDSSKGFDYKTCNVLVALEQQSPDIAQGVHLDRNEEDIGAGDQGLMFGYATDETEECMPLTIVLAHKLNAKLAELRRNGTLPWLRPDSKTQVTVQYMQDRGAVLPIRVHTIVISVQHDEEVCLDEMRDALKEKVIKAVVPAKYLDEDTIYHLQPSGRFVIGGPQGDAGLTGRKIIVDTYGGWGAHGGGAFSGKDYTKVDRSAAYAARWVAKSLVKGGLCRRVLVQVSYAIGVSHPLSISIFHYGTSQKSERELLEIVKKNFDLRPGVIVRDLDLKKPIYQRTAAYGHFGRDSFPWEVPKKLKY

| IC50 [nM] | Structure (SMILES) |
| --- | --- |
| 14 | CCOc1c(-c2ccc(OC(F)F)cc2)c(=O)n(-c2ccc3ncnn3c2)c2[nH]ncc12 [US20260014125, Compound 25] |
| 8.3 | CCOc1c(-c2ccc(OC(F)F)cc2)c(=O)n(-c2ccc3nn(CCOC)cc3c2)c2[nH]ncc12 [US20260014125, Compound 21] |
| 9.8 | CCOc1c(-c2ccc(OC(F)F)cc2)c(=O)n(-c2ccn3nccc3c2)c2[nH]ncc12 [US20260014125, Compound 23] |
| 15.9 | CCOc1c(-c2ccc(OC(F)F)cc2)c(=O)n(-c2ccc3nccn3c2)c2[nH]ncc12 [US20260014125, Compound 24] |
